Where two headings read alike, the source gives them in different places.
Experiments:
[1] = POV reduction in model citrus perfume (mixed citrus oil in 90/10 v/v ethanol/water)
[2] = pH of aqueous solution; format: physicochemical; settings: solution of 0.114 g in 10 mL of water
[3] = POV reduction in sunflower oil; settings: 0.5081 g in 15 mL sunflower oil
[4] = POV reduction in consumer product spiked with oxidized limonene: antiperspirant stick; settings: 1% (w/w)
[5] = POV reduction in non-citrus essential oil: basil oil; settings: 4 days treatment, 0.2 mL in 10 mL
Procedure: (§1) For each oil, 20 mL was placed in separate 30 mL glass vials, and subjected to the following procedure for 8 days on a daily basis; the vial was opened to refresh the atmospheric headspace, then reclosed and shaken to maximize the gas/liquid contact, then stored on the benchtop under ambient laboratory temperature and lighting conditions. This procedure was designed to mimic the typical handling of a container in a production setting, in which the oil gets consumed in many small aliquots, rather than an entire container at a time.
(§2) On Day 4, each oil sample was split in half, so two 10 mL aliquots were placed in separate vials to create a “Treated” and an “Untreated” sample. To the Treated sample of each oil type, AKG-DiTMEEA was added as per the Dosing chart below. […] The daily opening, shaking, and standing procedure continued for another four days until the POV measurements were taken. It can be seen that 8 days of such handling of the untreated oils caused significant increases in POV measurement.

[6] = POV reduction in non-citrus essential oil: coriander oil; settings: 4 days treatment, 0.2 mL in 10 mL
Procedure: as §1, §2

[7] = POV reduction in non-citrus essential oil: patchouli oil; settings: 4 days treatment, 0.2 mL in 10 mL
Procedure: as §1, §2

[8] = POV reduction in non-citrus essential oil: star anise oil; settings: 4 days treatment, 0.2 mL in 10 mL
Procedure: as §1, §2

[9] = POV reduction in non-citrus essential oil: cinnamon leaf oil; settings: 4 days treatment, 0.2 mL in 10 mL
Procedure: as §1, §2

[10] = POV reduction in non-citrus essential oil: cedarwood oil Virginian; settings: 4 days treatment, 0.2 mL in 10 mL
Procedure: as §1, §2

[11] = POV reduction in non-citrus essential oil: pine oil Siberian; settings: 4 days
Procedure: as §1, §2
For this reason, two levels of AKG-DiTMEEA treatment were tried, ×2 and ×4 the treatment used on the other oils. […] A different, lower molecular weight 2-oxoacid salt may be a better choice.

[12] = POV reduction in non-citrus essential oil: lavender oil; settings: 4 days treatment, 0.2 mL in 10 mL
Procedure: as §1, §2

[13] = POV reduction in non-citrus essential oil: petitgrain oil; settings: 4 days treatment, 0.2 mL in 10 mL
Procedure: as §1, §2

[14] = leading to evolution of carbon dioxide and pyruvic acid; Krebs 1942; cited from earlier work
[15] = 8 days* (second line, asterisk not explained)
[16] = Siberian (x2 Treatment Level), 0.2 mL in 5 mL
[17] = Siberian (x4 Treatment Level), 0.4 mL in 5 mL

## O=C(O)CCC(=O)C(=O)O [α-ketoglutaric acid, alpha-ketoglutaric acid]
[1]
  reduction in the POV of the formulated perfume (in words): complete reduction
[2]
  measured pH: 1.75

## COCCOCCN(CCOCCOC)CCOCCOC.COCCOCCN(CCOCCOC)CCOCCOC.O=C(O)CCC(=O)C(=O)O [AKG-diTMEEA]
[3]; 65 minutes since addition
  POV of treated oil: 11.72 mmol/L
[3]; 65 minutes
  % Reduction in POV: 29.2%
[3]; 180 mins (3 hrs)
  % Reduction in POV: 44.5%
  POV of treated oil: 9.19 mmol/L
[3]; 1320 mins (22 hrs)
  % Reduction in POV: 65.0%
  POV of treated oil: 5.80 mmol/L
[3]; 23 days
  % Reduction in POV: 88.7%
  POV of treated oil: 2.10 mmol/L
[4]; 150 minutes since addition, spiked with oxidized limonene
  POV of treated APS: 3.7 mmol/L
[4]; 150 minutes
  % Reduction in POV: 71.3%
[4]; 310 minutes (5.17 h)
  % Reduction in POV: 78.3%
  POV of treated APS: 3.03 mmol/L
[4]; 26 hrs
  % Reduction in POV: 83.2%
  POV of treated APS: 2.46 mmol/L
[4]; 4 days
  % Reduction in POV: 83.8%
  POV of treated APS: 2.04 mmol/L
[4]; [15]
  % Reduction in POV: 86.6%
  POV of treated APS: 1.8 mmol/L
[4]; 8 days
  % Reduction in POV: 87.0%
  POV of treated APS: 1.77 mmol/L
[4]; 15 days
  % Reduction in POV: 88.4%
  POV of treated APS: 1.50 mmol/L
[4]; 26 days
  % Reduction in POV: 88.7%
  POV of treated APS: 1.42 mmol/L
[5]
  % Reduction in POV: 89.6%
  POV of Treated Oil: 2.49 mmol/L
[6]
  % Reduction in POV: 89.7%
  POV of Treated Oil: 2.44 mmol/L
[7]
  % Reduction in POV: 100.0%
  POV of Treated Oil: 0.00 mmol/L
[8]
  % Reduction in POV: 89.2%
  POV of Treated Oil: 0.38 mmol/L
[9]
  % Reduction in POV: 87.5%
  POV of Treated Oil: 0.57 mmol/L
[10]
  % Reduction in POV: 95.2%
  POV of Treated Oil: 0.72 mmol/L
[11]; [16]
  % Reduction in POV: 48.4%
  POV of Treated Oil: 24.8 mmol/L
[11]; [17]
  % Reduction in POV: 68.4%
  POV of Treated Oil: 15.21 mmol/L
[12]
  % Reduction in POV: 76.3%
  POV of Treated Oil: 5.83 mmol/L
[13]
  % Reduction in POV: 79.9%
  POV of Treated Oil: 4.28 mmol/L

## O=C(O)CC(=O)C(=O)O [oxaloacetic acid]
[1]; 0.0 min, approximately 166 mg (0.83% w/v) in 20 mL model perfume (Example 19)
  POV of Treated Perfume: 9.44 mmol/L
[1]; 27 min, 0.83% w/v in 20 mL model perfume (Example 19)
  POV of Treated Perfume: 5.90 mmol/L
[1]; 245 min, 0.83% w/v in 20 mL model perfume (Example 19)
  POV of Treated Perfume: 1.91 mmol/L
[1]; 24 hours after treatment
  reduction in the POV of the formulated perfume (in words): complete reduction
[1]; […] (24 hours), 0.83% w/v in 20 mL model perfume (Example 19), indistinguishable from blank
  POV of Treated Perfume: 0.0 indistinguishable from mmol/L
[14]
  stability in aqueous solutions: unstable in aqueous solutions

Source: patent publication US12435294B2, “Prevention of the oxidation of perfumery raw materials and food raw materials” (Firmenich SA, priority 2018, dated 2025)
